Results as given in patent US11752132B2, “Materials and methods for improving gastrointestinal function” (University of Florida Research Foundation, Incorporated, priority 2010, dated 2023).
“And” between values parts separate entries of the source, which are not always exact repeats. Equal entries are not always repeated.

How the values were obtained:
small intestine mucosa = experiment: Ussing chamber isotope flux studies, unidirectional and net flux of Na^+ and Cl^−; assay type: in vitro ADME, mice; design: key to Na Flux Jms / Na Flux Jsm / Na Flux Jnet: fluxes in μmol·h^−1·cm^−2
Description: (§1) Following exsanguinations, jejunal segment was obtained by excluding the distal 12 cm of small intestine adjacent to the caecum. This segment was washed and flushed in ice-cold Ringer's solution before the mucosa was stripped from the underlying muscular layers (Zhang, Ameen et al. 2007). The mucosa was mounted between the 2 halves of an Ussing-type Lucite chamber with an area of 0.30 cm^2 (P2304, Physiologic instruments, San Diego, Calif. 92128 USA), and electrical parameters were recorded using a voltage/current clamp device (VCC MC-8, Physiologic instruments, San Diego, Calif. 92128 USA) (Vidyasagar et al. 2005; Vidyasagar et al. 2004; Zhang et al. 2007; Vidyasagar and Ramakrishna 2002).
Irradiation decreases Jms in a dose-dependent manner, and results in decreased net Na^+ absorption (JNetNa). Jsm far exceeds Jms at doses 7 and 9 Gy, causing net secretion. In addition, mice stool samples became loose or poorly formed at high dose irradiation, further evidencing decreased absorption and increased secretion of electrolytes. […] Decrease in Cl^− absorption was due to decrease in JmsCl^−.
In this Example, isotope (^22Na and ^36Cl) substitution studies are performed to determine the basal Na^+ and Cl^− movement. Briefly, ^22Na and ^36Cl are added either to the mucosal or to the serosal side. 0.5 ml samples are collected from the cold side at the end of every 30 minutes. Unidirectional fluxes are calculated using standard formula, and expressed as μmol·h^−1·cm^−2. Net flux (JNet) is calculated as the difference between Jms and Jsm fluxes across tissue pairs. Experiments are performed under short-circuit conditions.

[1] = system: jejunum (HCO3^− secretion); experiment: pH stat measurement of HCO3^− secretion in stripped jejunal sheets; assay type: cell-based, mice
Description: A Bi-burette TIM 856 (Radiometer Analytical SAS, Villeurbanne, France) was used to measure HCO3^− secretion in stripped jejunal sheets (Vidyasagar et al. 2005; Vidyasagar et al. 2004; Zhang et al. 2007). Automated pumps maintained a constant pH for luminal solution through the addition of 0.01 μl of 0.025 M sulfuric acid (H2SO4). Standard-to-stat pH calibration was established by adding a known quantity of H2SO4 to a weak buffering solution, which contains an increasing concentration of HCO3^− to produce a linear titration curve.
Jejunal tissues were exposed to a buffered solution on the bath side (serosal side), while the luminal side was exposed to an HCO3^− free, low-buffered solution (0.1-mM HEPES (4-(2-hydroxyethyl)-1-piperazineethanesulfonic acid) buffer, pH 7.4). The HCO3^− secretion was equivalent to the amount of acid added to the luminal solution to maintain the pH at 7.4 (or the stat pH). All experiments were performed under voltage-clamp conditions. HCO3^−-free solution was gassed with 100% O2 and HCO3^−-containing solution was gassed with 95% O2 and 5% CO2. The HCO3^− secretion was expressed as μeq h^−1·cm^−2 (Vidyasagar et al. 2005; Vidyasagar et al. 2004; Zhang et al. 2007).
After the tissue was mounted, HCO3^− secretions were initially present in the absence of bath HCO3^−, but rapidly fell towards 0 within 20-30 minutes. If bath HCO3^− was not present during the titration, the HCO3^− secretion remained close to 0. […] When inhibitors were added to the mucosal solution, the pH was adjusted and allowed to equilibrate for 30 minutes, until a steady rate of HCO3^− secretion was observed. When the inhibitor was added to the bath side, the tissue was also equilibrated for 30 minutes to achieve a steady rate of HCO3^− secretion (see Table 3).
All experiments were performed during the initial 1-hour steady-state period. 1 tissue from each animal was used for each experiment; only 1 experimental condition was studied with each tissue sample. All experiments were repeated for at least 4 times.

[2] = system: jejunal mucosa (net anion secretion); experiment: Ussing chamber transepithelial short circuit current (Isc) with transport blockers/forskolin; assay type: cell-based, mice
Text: To study active HCO3^− secretion, 8-week-old, non-irradiated and irradiated, male BALB/c mice were obtained from the National Cancer Institute. Mice were randomly divided into groups, and abdomens were irradiated according to the gastrointestinal acute radiation syndrome (GI ARS) model with a Shepherd Mark-I, using a ^137Cs source delivering γ-irradiation at 1.84 Gy/min. Radiation was given as a single fraction. The GI ARS model will achieve maximum radiation damage to intestinal tissues, and mimics intestinal injury during radiation therapy of pelvic or abdominal tumors.
Changes in short circuit current (Isc), both as a function of time following radiation and with increasing doses of radiation, were examined to determine the earliest time and the minimum radiation dose required to produce significant changes in Isc. These studies were approved by the University of Rochester Animal Care and Use Committee.
as §1
To determine the contribution of NKCC1 to basal Isc, 100 μM bumetanide (Sigma-Aldrich Co., USA) was added to the bath solution.
To determine whether the bumetanide-insensitive portion of Isc occurs via an apical membrane anion channel, a non-specific anion channel blocker, 5-nitro-2-(3-phenylpropylamino)-benzoic acid (Sigma-Aldrich Co., USA) (10 μM NPPB), and a specific cystic fibrosis transmembrane conductance regulator (CFTR) blocker (100 μM glibenclamide, Sigma-Aldrich Co., USA) were applied.

[3] = system: mice with injury to small intestine mucosa; experiment: Oral administration of candidate nutrients in radiation, chemotherapy and Crohn's disease models; conditions: for survival: oral feeding of an irradiated subject; for effect of oral administration on small intestine healing, paracellular conductance, electrolyte absorption, survival: radiation, chemotherapy and Crohn's disease models, each amino acid
Description: In a Crohn's disease model, mice are injected with anti-CD3 mAb (acute inflammatory model to mimic conditions of Crohn's disease).
The alterations of absorptive capacity of nutrients are determined using disease models with injury to small intestine mucosa, i.e., the radiation model, chemotherapy model, and the Crohn's disease model. Specifically, a candidate nutrient is orally administered to control mice and mice that received irradiation, chemotherapy, and anti-CD3 mAb, respectively. In addition, compositions containing various combinations of the candidate nutrients are orally administered.
To determine the absorptive capacity of each nutrient, bioelectric measurements are performed using an Ussing chamber. The measurements include: a) the sodium coupled-amino acid current (ISC) and changes in conductance, b) changes in saturation kinetics of each nutrient and changes in the ISC following the administration of each nutrient; and c) the electrolyte absorption studies using isotope flux studies in the presence and absence of the specific candidate nutrient.

Structure (SMILES): Cl [Cl^−]
- Cl Flux Jms (small intestine mucosa; IR 0 Gy): 17.3 ± 1.1
- Cl Flux Jnet (small intestine mucosa; IR 0 Gy): 10.2 ± 0.8
- Cl Flux Jsm (small intestine mucosa; IR 0 Gy): 7.1 ± 0.6
- Cl Flux Jms (small intestine mucosa; IR 1 Gy): 12.8 ± 0.9
- Cl Flux Jnet (small intestine mucosa; IR 1 Gy): 5.2 ± 0.9
- Cl Flux Jsm (small intestine mucosa; IR 1 Gy): 7.6 ± 1.3
- Cl Flux Jms (small intestine mucosa; IR 3 Gy): 16.8 ± 0.7
- Cl Flux Jnet (small intestine mucosa; IR 3 Gy): 7.5 ± 0.8
- Cl Flux Jsm (small intestine mucosa; IR 3 Gy): 9.3 ± 0.8
- Cl Flux Jms (small intestine mucosa; IR 5 Gy): 14.2 ± 1.2
- Cl Flux Jnet (small intestine mucosa; IR 5 Gy): 3.9 ± 0.7
- Cl Flux Jsm (small intestine mucosa; IR 5 Gy): 10.3 ± 0.9
- Cl Flux Jms (small intestine mucosa; IR 7 Gy): 7.1 ± 0.5
- Cl Flux Jnet (small intestine mucosa; IR 7 Gy): 0.3 ± 0.2
- Cl Flux Jsm (small intestine mucosa; IR 7 Gy): 6.9 ± 0.3
- Cl Flux Jms (small intestine mucosa; IR 9 Gy): −9.2 ± 0.8
- Cl Flux Jnet (small intestine mucosa; IR 9 Gy): −9.3 ± 0.9
- Cl Flux Jsm (small intestine mucosa; IR 9 Gy): 0.1 ± 0.1

Structure (SMILES): CS(=O)(=O)c1cc(C(=O)NC(=N)N)ccc1N1CCCCC1.Cl [HOE694, 3-methylsulphonyl-4-piperidinobenzoyl, guanidine hydrochloride]
- cAMP-stimulated HCO3^− secretion after HOE694 ([1]; 1 mM HOE694 on bath side, 8.4±0.4 without): 7.2±0.9 μeq·h^−1·cm^−2

Structure (SMILES): O=C(O)c1cc([N+](=O)[O-])ccc1NCCCc1ccccc1 [NPPB, 5-nitro-2-(3-phenylpropylamino)-benzoic acid]
- forskolin-stimulated HCO3^− secretion after blocker ([1]; 0 Gy + forskolin, blocker on luminal side (100 μM glibenclamide; NPPB)): 0.2±0.01 μeq·h^−1·cm^−2
- HCO3^− secretion ([1]; 3 Gy, blocker in lumen solution / mucosal addition (100 μM DIDS or glibenclamide; NPPB)): 0.2±0.01 μeq·h^−1·cm^−2
- bumetanide-insensitive Isc after mucosal addition of blocker ([2]; 0-Gy mice, 10 μM NPPB, 100 μM glibenclamide): 0.1±0.01 μeq·h^−1·cm^−2

Structure (SMILES): [Na+] [Na^+]
- Na Flux Jms (small intestine mucosa; IR 0 Gy): 16.4 ± 0.9
- Na Flux Jnet (small intestine mucosa; IR 0 Gy): 9.8 ± 0.8
- Na Flux Jsm (small intestine mucosa; IR 0 Gy): 7.1 ± 0.8
- Na Flux Jms (small intestine mucosa; IR 1 Gy): 15.6 ± 1
- Na Flux Jnet (small intestine mucosa; IR 1 Gy): 8.6 ± 0.9
- Na Flux Jsm (small intestine mucosa; IR 1 Gy): 7.1 ± 1.1
- Na Flux Jms (small intestine mucosa; IR 3 Gy): 6.8 ± 0.7
- Na Flux Jnet (small intestine mucosa; IR 3 Gy): 2.6 ± 0.5
- Na Flux Jsm (small intestine mucosa; IR 3 Gy): 3.5 ± 0.3
- Na Flux Jms (small intestine mucosa; IR 5 Gy): 5.2 ± 0.6
- Na Flux Jnet (small intestine mucosa; IR 5 Gy): 0.4 ± 0.2
- Na Flux Jsm (small intestine mucosa; IR 5 Gy): 4.8 ± 0.4
- Na Flux Jms (small intestine mucosa; IR 7 Gy): 4.8 ± 0.4
- Na Flux Jnet (small intestine mucosa; IR 7 Gy): −0.6 ± 0.3
- Na Flux Jsm (small intestine mucosa; IR 7 Gy): 5.4 ± 0.4
- Na Flux Jms (small intestine mucosa; IR 9 Gy): 4.3 ± 0.7
- Na Flux Jnet (small intestine mucosa; IR 9 Gy): −0.4 ± 0.2
- Na Flux Jsm (small intestine mucosa; IR 9 Gy): 4.7 ± 0.6

Structure (SMILES): NC(=O)C[C@H](N)C(=O)O [asparagine]
- survival [3]: prolongs survival
- effect of oral administration on small intestine healing, paracellular conductance, electrolyte absorption, survival [3]: improve small intestine healing, reduces paracellular conductance (thereby improving small intestine mucosal barrier mechanism), increases absorption of electrolytes, and/or improves survival in animals

Structure (SMILES): N[C@@H](CC(=O)O)C(=O)O [aspartic acid]
- survival [3]: prolongs survival
- effect of oral administration on small intestine healing, paracellular conductance, electrolyte absorption, survival [3]: improve small intestine healing, reduces paracellular conductance (thereby improving small intestine mucosal barrier mechanism), increases absorption of electrolytes, and/or improves survival in animals

Structure (SMILES): C=C[C@@]1(C)CC(=O)[C@]2(O)[C@@]3(C)[C@@H](O)CCC(C)(C)[C@@H]3[C@H](O)[C@H](OC(C)=O)[C@@]2(C)O1 [forskolin]
- HCO3^− secretion ([1]; 0 Gy + forskolin, Cl^− containing lumen solution): 8.4±0.4 μeq·h^−1·cm^−2
- HCO3^− secretion ([1]; 0 Gy + forskolin, Cl^−-free lumen solution): 8.7±0.4 μeq·h^−1·cm^−2 and 8.7 ± 0.4^ μeq·h^−1·cm^−2
- HCO3^− secretion ([1]; 3 Gy + forskolin, Cl^− containing lumen solution): 0.6 ± 0.2 μeq·h^−1·cm^−2
- HCO3^− secretion ([1]; 3 Gy + forskolin, Cl^− containing lumen solution, listed as Forskolin): 0.6±0.2 μeq·h^−1·cm^−2
- HCO3^− secretion ([1]; 3 Gy + forskolin, Cl^−-free lumen solution): 0.9 ± 0.2^ μeq·h^−1·cm^−2
- forskolin-stimulated HCO3^− secretion ([1]; non-irradiated mice, bath Na^+ replaced with NMDG): 0.3±0.01 μeq·h^−1·cm^−2
- forskolin-stimulated Isc ([2]; 0 Gy): 6.9±0.6 μeq·h^−1·cm^−2
- forskolin-stimulated Isc in Cl^−-free solution ([2]; 0 Gy): 1.7±0.2 μeq·h^−1·cm^−2
- forskolin-stimulated Isc in Cl^−-free solution ([2]; 3-Gy irradiated mice): 0.3±0.1 μeq·h^−1·cm^−2
- forskolin-stimulated Isc ([2]; 3 Gy): 7.3±0.5 μeq·h^−1·cm^−2

Structure (SMILES): NCC(=O)O [glycine]
- survival [3]: prolongs survival
- effect of oral administration on small intestine healing, paracellular conductance, electrolyte absorption, survival [3]: improve small intestine healing, reduces paracellular conductance (thereby improving small intestine mucosal barrier mechanism), increases absorption of electrolytes, and/or improves survival in animals

Structure (SMILES): CC[C@H](C)[C@H](N)C(=O)O [isoleucine]
- survival [3]: prolongs survival
- effect of oral administration on small intestine healing, paracellular conductance, electrolyte absorption, survival [3]: improve small intestine healing, reduces paracellular conductance (thereby improving small intestine mucosal barrier mechanism), increases absorption of electrolytes, and/or improves survival in animals

Structure (SMILES): N[C@@H](CO)C(=O)O [serine]
- survival [3]: prolongs survival
- effect of oral administration on small intestine healing, paracellular conductance, electrolyte absorption, survival [3]: improve small intestine healing, reduces paracellular conductance (thereby improving small intestine mucosal barrier mechanism), increases absorption of electrolytes, and/or improves survival in animals

Structure (SMILES): C[C@@H](O)[C@H](N)C(=O)O [threonine]
- survival [3]: prolongs survival
- effect of oral administration on small intestine healing, paracellular conductance, electrolyte absorption, survival [3]: improve small intestine healing, reduces paracellular conductance (thereby improving small intestine mucosal barrier mechanism), increases absorption of electrolytes, and/or improves survival in animals

Structure (SMILES): N[C@@H](Cc1c[nH]c2ccccc12)C(=O)O [tryptophan]
- survival [3]: prolongs survival
- effect of oral administration on small intestine healing, paracellular conductance, electrolyte absorption, survival [3]: improve small intestine healing, reduces paracellular conductance (thereby improving small intestine mucosal barrier mechanism), increases absorption of electrolytes, and/or improves survival in animals

Structure (SMILES): N[C@@H](Cc1ccc(O)cc1)C(=O)O [tyrosine]
- survival [3]: prolongs survival
- effect of oral administration on small intestine healing, paracellular conductance, electrolyte absorption, survival [3]: improve small intestine healing, reduces paracellular conductance (thereby improving small intestine mucosal barrier mechanism), increases absorption of electrolytes, and/or improves survival in animals

Structure (SMILES): CC(C)[C@H](N)C(=O)O [valine]
- survival [3]: prolongs survival
- effect of oral administration on small intestine healing, paracellular conductance, electrolyte absorption, survival [3]: improve small intestine healing, reduces paracellular conductance (thereby improving small intestine mucosal barrier mechanism), increases absorption of electrolytes, and/or improves survival in animals
